Measurements taken from patent US20240292836A1, “AGENTS FOR REPELLING, KNOCKING DOWN, AND/OR KILLING BLOOD-SUCKING ARTHROPODS AND USES THEREOF” (The United States of America, as represented by the …, priority 2023, published 2024).
Where “and” joins values, the source holds several entries; their conditions need not be identical. Equal entries are not always repeated.

Columns and labels:
[1] = tested on: female Aedes aegypti adults; experiment: High-throughput in vitro screening assay, spatial repellency; assay type: in vivo; conditions: for 30-minute RD50 compared with that of DEET: 30 minutes, α = 0.05
Source text: A high-throughput screening method for evaluating spatial repellency and vapor toxicity, described by Jiang S., et al. (2019, “High-Throughput Screening Method for Evaluating Spatial Repellency and Vapour Toxicity to Mosquitoes,” Med. Vet. Entomol. 33: 388-396), was used for this study. As shown in FIG. 2 of Jiang S., et al., assay tubes were constructed by covering 12.5 cm glass tubes on one side with netting secured by a rubber band. The tubes were used in horizontal orientation. Adult mosquitos 2-7 days old were anesthetized on ice for approximately 5 minutes and 16 females were transferred to each tube. The other end of the tube was then closed with netting and a rubber band.
The conical ends of 50 mL centrifuge tubes (Eppendorf, Enfield, Connecticut, USA) were cut at approximately the 10 mL mark to create the end caps for the assay tubes. […] For repellency tests, filter papers for the “untreated” side of the assay tube received pure acetone, whereas filter papers for the “treated” side received acetone solution containing a dissolved compound of interest. For knockdown tests, both filter papers were treated with acetone solution containing one or more compounds of interest. Acetone on both filter papers served as negative controls.
For repellency assays, filter papers were given 10 minutes of evaporation time before being placed into the end caps with forceps (Jiang S., et al. 2019, Supra). For knockdown assays, filter papers were given 5 minutes of evaporation time before being placed into the end caps. […] Assay tubes were capped such that the cap securely overlapped the glass but approximately 5 mm of space was left between the netting and the filter paper so that the mosquitos could not contact the filter paper.
Assay tubes were placed on a white polystyrene platform with wooden sticks glued flatly across it to prevent the tubes from rolling. A straight black line was drawn down the center of the platform and assay tubes were centered on the line at the beginning of the tests. In repellency assays, data were collected at 15, 30, and 60 minutes after the end caps were placed on the assay tubes. Assay tubes were not disturbed for the entire 60 minutes. At each time point, the number of mosquitos that remained on the treated side was visually assessed and recorded. The treated side was alternated with each set of tests. For repellency tests, DEET at a dose of 100 μg/cm^2 served as the positive control.
For the high-throughput in vitro screening assays, analyses were conducted with R version 4.2.2 statistical software (R Core Team, 2022, “R: a language and environment for statistical computing. R foundation for statistical computing,” Vienna, Austria). Concentrations were calculated in terms of filter paper surface area (μg/cm^2) for repellency assays and in terms of assay tube volume (μg/cm^3) for knockdown assays.
Half-repellent (RD50), half-knockdown (KD50), and half-lethal (LD50) doses were calculated from dose-response curves (DRCs) obtained by four-parameter log-logistic equation models generated using the drc package (Dose Response Curve Analyses Software; Ritz C. et al., 2015, “Dose-response analysis using R,” PLOS ONE 10: e0146021). For repellency test analysis, the upper and lower asymptotes for the proportion of mosquitos remaining on the treated side were fixed at 0.5 and 0, respectively. For KD and mortality test analysis, the upper and lower asymptotes for the proportion of mosquitos knocked down or killed were fixed at 1.0 and 0, respectively. To determine whether RD50, KD50, or LD50 values differed across compounds at each timepoint, a joint model assuming different values for each compound and a null model that assumed a single value for all compounds were compared with a likelihood ratio test.

[2] = tested on: female Aedes aegypti adults; experiment: High-throughput in vitro screening assay, knockdown and mortality; conditions: for KD50 (30 min), half-knockdown dose / KD50 (60 min), half-knockdown dose: dose per assay tube volume, 95% CI; for knockdown and mortality activities (in words): in vivo; for time at which knockdown began: FIG. 6A, 6B, 6D
[3] = tested on: female Aedes aegypti adults; experiment: Arm-in-cage cloth-patch in vivo assay (topical repellency); conditions: for Minimum Effective Dose (MED): Mean ± SEM, lowest dosage with five or fewer bites through repellent-treated cloth in 1-minute exposure, at least three volunteers; for topical repellency (in words): initial screening dose of 0.187 mg/cm^2
Source text: Arm-in-Cage Test Cloth-Patch in vivo Assay Pyrethroid-susceptible yellow fever mosquitoes Ae. aegypti (Orlando strain) were reared in the United States Department of Agriculture Mosquito and Fly Research Unit in Gainesville, FL under standard protocols. Three to seven-day-old, starved female mosquitoes were collected using a “draw box” (Posey, K. and Schreck, C. E, 1981, “An airflow apparatus for selecting female mosquitoes for use in repellent and attraction studies” Mosquito News 41: 566-568; US. Department of Agriculture, 1977, Repellent activity of compounds submitted by Walter Reed Army Institute of Research. Part 1. Protection time and minimum effective dosage against Aedes aegypti mosquitoes. Tech. Bull. No. 1549) and were placed in cages at an approximate density 200 mosquitoes/cage. Repellency was determined according to a standard protocol (Bernier, U. R., et al, 2022. “Evaluation and application of repellent-treated uniform/clothing and textiles against vector mosquitoes,” In Advances in Arthropod Repellents (pp. 69-94). Academic Press) and reported as the minimum effective dosage (MED). […] A nylon leg stocking was placed over the arm to prevent direct contact of the repellent-treated cloth patch with the skin. […]. Cloth was treated by placing a rolled bandage (50 cm^2) into each vial containing 1 mL of solution and allowing the patch to absorb the solution completely. The cloth was taped over a 4 by 9-cm opening cut into a vinyl plastic sheet that was draped around the volunteers' arms and taped in place. The cloth was air-dried approximately 15 min before conducting each test. The work reported here is an average of the MED for at least three volunteers. Each volunteer covered his or her arm with a nylon stocking to avoid contact between the skin and the treated cloth and wore a rubber glove to prevent mosquito bites on the hand.
. The minimum effective dose (MED) was determined for each repellent and subject, defined as the lowest concentration that prevents biting). MEDs from each subject were pooled and reported as the average among all replicates/subjects with SEM. A minimum of 3 replicates were performed on at least three human subjects. Written informed consent was obtained for all human subjects used in this study in accordance with IRB protocol #20193320, as approved by the WCG™ IRB.
(§1) Statistical Analyses: Student's T-test was used to compare the means between tested compound and DEET and Icaridin in the arm-in-cage in vivo assay and neurophysiological study.

[4] = tested on: Aedes aegypti larvae central nervous system; experiment: Neurophysiological experiment, nerve firing of mosquito central nervous system
Method: Neurophysiological Experiment—Action on Mosquito Central Nervous System All compounds were screened at 100 μM on the central nervous system of 4th instar Aedes aegypti larvae. Nerve firing was reported as the percentage firing compared to a pre-application baseline period that was determined approximately 3 minutes prior to drug application, similar to methods outlined in Norris, E. J. and Bloomquist J. R. (2021, “Recording central neurophysiological output from mosquito larvae for neuropharmacological and insecticide resistance studies,” J. Insect Physiol. 135: 104319). […] Compound potency was characterized by “time-to-nerve block” defined as the first time point where significant nerve block was observed compared to the vehicle control via a Student T-test, p<0.05 as shown in Table 1 and FIG. 2.
as §1

[5] = tested on: female Aedes aegypti adults; conditions: estimated from a previous report (Licciardi 2006); cited from earlier work
[6] = at 25.00° C.; cited from earlier work
[7] = literature evaluations; cited from earlier work
[8] = Vapor pressure; assay type: physicochemical; conditions: MFA versus MDMA
[9] = dose per filter paper surface area, 95% CI

Compound | 30-minute RD50 compared with that of DEET [1] | KD50 (30 min), half-knockdown dose [2] [µg/mL] | KD50 (60 min), half-knockdown dose [2] [µg/mL] | knockdown and mortality activities (in words) [2] | Minimum Effective Dose (MED) [3] | topical repellency (in words) [3] | nerve block (in words) ([4]; 100 μM, 4th instar larvae) | mosquitoes repelled ([1]; 60 minutes, dose of 100 μg/cm^2) [%] | dose at which knockdown might begin [5] | RD50 (30 min), half-repellent dose [1, 9] [μg/cm^2] | vapor pressure [6] [mmHg] | safety (in words) [7] | vapor pressure, times lower than that of MDMA [8] [times] | RD50 (60 min), half-repellent dose ([1]; 60 min, dose per filter paper surface area, 95% CI) [μg/cm^2] | spatial repellency (in words) ([1]; highest-tested dose of 100 μg/cm^2) | time at which knockdown began [2] [min] | Time to nerve block ([4]; 100 μM on central nervous system of 4th instar larvae) [min]
CCCCCOC(=O)c1ccccc1 [nPeB, n-pentyl benzoate] | not significantly different from that of DEET | 4.77 | 3.98 | exhibited considerable knockdown and mortality activities | >0.187 mg/cm^2 | did not show any topical repellencies | Nerve block was produced by all compounds screened at this concentration, except for compound nPeB |  |  |  |  |  |  |  |  |  | 
CCN(CC)C(=O)c1cccc(C)c1 [DEET, N,N-diethyl-meta-toluamide, reference compound] |  | >15 | >15 |  | 0.0100±0.003 mg/cm^2 and 0.0100 mg/cm^2 |  |  | 100 | approximately 15 μg/cm^3 |  |  |  |  |  |  |  | 
COC(=O)c1ccccc1N(C)C [MDMA, methyl N,N-dimethyl anthranilate] | significantly lower than that of DEET |  |  |  | 0.039 mg/cm^2 |  |  |  |  | 6.58 | 0.01 |  |  |  |  |  | 
COC(=O)c1ccccc1NC=O [MFA, methyl N-formylanthranilate] |  |  |  |  | 0.047 mg/cm^2 |  |  |  |  | >100 | 0.000013 | No adverse effects to humans have been found | 769 | >100 | did not show spatial repellencies |  | 
CC(C)COC(=O)c1ccccc1 [iBB, iso-butyl benzoate] | not significantly different from that of DEET | 5.26 | 5.29 | exhibited considerable knockdown and mortality activities | >0.187 mg/cm^2 | did not show any topical repellencies |  |  |  |  |  |  |  |  |  | 5 | 
COC(=O)c1ccccc1OC [M2MOB, methyl 2-methoxybenzoate] | not significantly different from that of DEET | >7 | >7 |  | 0.049 mg/cm^2 |  |  |  |  |  |  |  |  |  |  |  | 24
CC(C)CCOC(=O)c1ccccc1 [iPeB, iso-pentyl benzoate] | not significantly different from that of DEET | 3.71 | 3.40 | exhibited considerable knockdown and mortality activities | >0.187 mg/cm^2 | did not show any topical repellencies |  |  |  |  |  |  |  |  |  | 5 | 
